According to patent US20140038920A1, “TFEB PHOSPHORYLATION INHIBITORS AND USES THEREOF” (FONDAZIONE TELETHON, priority 2011, published 2014):
Like-named read-outs stand apart in the source and are kept apart here.

Columns and labels:
TFEB [1] = assay: TFEB molecular weight shift and localization in TFEB-3xFLAG HeLa cells stimulated with amino-acid rich medium plus inhibitor (FIG. 19B); type: cell-based; conditions: Torin 1 250 nM, Rapamycin 2.5 μM
Description: FIG. 19 mTORC1 regulates TFEB. (A) Lysosomal stress inhibits mTOR signaling. Immunoblotting of protein extracts isolated from HeLa cells treated overnight, as indicated. Membranes were probed with antibodies for p-T202/Y204-ERK1/2, ERK1/2, p-T389-S6K, and S6K to measure ERK and mTORC1 activities. […] FLAG immunoblotting of cytosolic and nuclear fractions isolated from TFEB-3×FLAG HeLa cells cultured in amino acid-free media and subsequently stimulated as indicated for at least 3 h. Correct subcellular fractionation was verified with H3 and tubulin antibodies. (C, D) Effects and dose—response curves of ERK and mTOR inhibitors on TFEB nuclear translocation. […] After 3 h at 37° C. in RPMI medium containing one of each of the compounds, the cells were washed, fixed, and stained with DAPI and photographed by using confocal automated microscopy (Opera high content system, Perkin Elmer). (C) Representative images of test concentrations for each compound. Scale bars represent 30 μm. […] The EC50 for each compound was calculated using Prism software (see Materials and Methods for details). (E) Amino acids induce TFEB molecular weight shift. Immunoblotting of protein extracts isolated from HEK-293T cells transfected either TFEB-3×FLAG or with an empty vector were nutrient starved and stimulated for 50 minutes with amino acids (a.a.). Antibody used were p-T389-S6K, S6K and FLAG. (F) Rag knockdown induces TFEB nuclear translocation. HeLa cells stably expressing Flag-3×TFEB were infected with lentiviruses encoding a Short hairpin (Sh-) RNA targeting luciferase (control) or RagC and RagD mRNAs. […] TFEB localization was detected with a FLAG antibody, whereas tubulin and H3 were used as controls for the cytosolic and nuclear fraction, respectively; levels of S6K phosphorylation were used to test RagC and RagD knockdown efficiency.
The mouse anti-TFEB monoclonal antibody was purchased from My Biosource catalogue No. MBS 120432. To generate anti-pS142 specific antibodies, rabbits were immunized with the following peptide coupled to KLH: AGNSAPN{pSer}[…]. Following the fourth immunization, rabbits were sacrificed and the serum was collected. Non-phosphospecific antibodies were depleted from the serum by circulation through a column containing the nonphosphorylated antigene. The phosphospecific antibodies were subsequently purified using a column containing the phosphorylated peptide. Cells were lysed with M-PER buffer (Thermo) containing protease and phosphatase inhibitors (Sigma); nuclear/cytosolic fractions were isolated as above described. Proteins were separated by SDS-PAGE (Invitrogen; reduced NuPAGE 4-12% Bis-tris Gel, MES SDS buffer). If needed, the gel was stained using 20 ml Imperial Protein Stain (Thermo Fisher) at room temperature for 1 h and de-stained with water. […]

TFEB [2] = assay: High content TFEB-GFP nuclear translocation assay; type: cell-based; conditions: Homo sapiens, TFEB-GFP HeLa cells
[3] = 3 h, ten concentrations 2.54 nM to 50 μM (FIG. 19D), read-out: EC50, TFEB nuclear translocation
[4] = mobilization of cytosolic TFEB to the nucleus, 3 h at 37° C. in RPMI, ten concentrations 50 μM to 2.54 nM, 4 runs, read-out: Average EC50

| SMILES | TFEB subcellular localization after nutrient stimulation (TFEB [1]) | EC50 (TFEB [2]; [3]) | EC50 (TFEB [2]; [4]) | TFEB molecular weight shift induced by nutrients (TFEB [1]; U0126 50 μM) |
| --- | --- | --- | --- | --- |
| CCC(=O)N1CCN(c2ccc(-n3c(=O)ccc4cnc5ccc(-c6cnc7ccccc7c6)cc5c43)cc2C(F)(F)F)CC1 [TORIN 1] | massive TFEB nuclear accumulation | 0.148 µM | < 7 µM | – |
| CO[C@H]1C[C@@H]2CC[C@@H](C)[C@@](O)(O2)C(=O)C(=O)N2CCCC[C@H]2C(=O)O[C@H]([C@H](C)C[C@@H]2CC[C@@H](O)[C@H](OC)C2)CC(=O)[C@H](C)/C=C(\C)[C@@H](O)[C@@H](OC)C(=O)[C@H](C)C[C@H](C)/C=C/C=C/C=C/1C [RAPAMYCIN] | did not affect TFEB subcellular localization | 104 µM | > 15 µM | partial molecular weight shift |
